# System: MV-4-11 cells
# Assay: Gene expression microarray analysis (Affymetrix PrimeView) and GSEA
# Type: cell-based, human
# Parameters: RFU PODN (11730768_x_at) / Fold change /veh PODN (11730768_x_at) / RFU LINC00158 (11744669_a_at) / Fold change /veh LINC00158 (11744669_a_at) / RFU DUSP10 (11751237_a_at) / Fold change /veh DUSP10 (11751237_a_at) / RFU ID3 (11757404_x_at) / Fold change /veh ID3 (11757404_x_at) / RFU PLEKHG5 (11737974_s_at) / Fold change /veh PLEKHG5 (11737974_s_at) / RFU LRRC4B (11730491_at) / Fold change /veh LRRC4B (11730491_at) / RFU GIMAP4 (11747438_a_at) / Fold change /veh GIMAP4 (11747438_a_at) / RFU KRT8 (11758183_x_at) / Fold change /veh KRT8 (11758183_x_at) / RFU CNN1 (11734310_a_at) / Fold change /veh CNN1 (11734310_a_at) / RFU VPS37D (11726825_at) / Fold change /veh VPS37D (11726825_at) / RFU C10orf10 (11716522_x_at) / Fold change /veh C10orf10 (11716522_x_at) / RFU KIR2DL2 /// KIR2DL4 /// KIR2DL5A /// KIR2DL5B /// KIR2DS1 /// KIR2DS2 /// KIR2DS3 /// KIR2DS4 /// KIR3DL3 /// KIR3DL3 /// KIR3DS1 (11738374_at) / Fold change /veh KIR2DL2 /// KIR2DL4 /// KIR2DL5A /// KIR2DL5B /// KIR2DS1 /// KIR2DS2 /// KIR2DS3 /// KIR2DS4 /// KIR3DL3 /// KIR3DL3 /// KIR3DS1 (11738374_at) / RFU C1QL1 (11718748_at) / Fold change /veh C1QL1 (11718748_at) / RFU TMPRSS4 (11747572_a_at) / Fold change /veh TMPRSS4 (11747572_a_at) / RFU HAMP (11756126_x_at) / Fold change /veh HAMP (11756126_x_at) / RFU RNFT2 (11725882_a_at) / Fold change /veh RNFT2 (11725882_a_at) / RFU NR4A2 (11747474_a_at) / Fold change /veh NR4A2 (11747474_a_at) / RFU ABCC12 (11746883_a_at) / Fold change /veh ABCC12 (11746883_a_at) / RFU TMEM136 (11760407_x_at) / Fold change /veh TMEM136 (11760407_x_at) / RFU CLDN22 /// WWC2 (11732394_at) / Fold change /veh CLDN22 /// WWC2 (11732394_at) / RFU HLA-DPB1 (11760878_x_at) / Fold change /veh HLA-DPB1 (11760878_x_at) / RFU SPINT1 (11716480_a_at) / Fold change /veh SPINT1 (11716480_a_at) / RFU GAP43 (11754022_s_at) / Fold change /veh GAP43 (11754022_s_at) / RFU A4GNT (11735810_at) / Fold change /veh A4GNT (11735810_at) / RFU PRB3 (11715151_x_at) / Fold change /veh PRB3 (11715151_x_at) / RFU TUBB4B (11761932_at) / Fold change /veh TUBB4B (11761932_at) / RFU CAPN14 (11732068_a_at) / Fold change /veh CAPN14 (11732068_a_at) / RFU TMCC2 (11721928_a_at) / Fold change /veh TMCC2 (11721928_a_at) / RFU IRGQ (11745062_a_at) / Fold change /veh IRGQ (11745062_a_at) / RFU FAM174B (11720279_a_at) / Fold change /veh FAM174B (11720279_a_at) / RFU TMPRSS4 (11748680_a_at) / Fold change /veh TMPRSS4 (11748680_a_at) / RFU FAM212B (11763350_a_at) / Fold change /veh FAM212B (11763350_a_at) / RFU PLEKHG5 (11743358_a_at) / Fold change /veh PLEKHG5 (11743358_a_at) / RFU ZSCAN30 (11745921_a_at) / Fold change /veh ZSCAN30 (11745921_a_at) / RFU CMKLR1 (11741424_a_at) / Fold change /veh CMKLR1 (11741424_a_at) / RFU LOC101060620 /// MAPK8IP1 (11723275_at) / Fold change /veh LOC101060620 /// MAPK8IP1 (11723275_at) / RFU SPTSSB (11747773_x_at) / Fold change /veh SPTSSB (11747773_x_at) / RFU PRSS12 (11739890_at) / Fold change /veh PRSS12 (11739890_at) / RFU BIN1 (11741810_x_at) / Fold change /veh BIN1 (11741810_x_at) / RFU WNT11 (11732464_a_at) / Fold change /veh WNT11 (11732464_a_at) / RFU C10orf10 (11716521_a_at) / Fold change /veh C10orf10 (11716521_a_at) / RFU C5orf56 (11738089_at) / Fold change /veh C5orf56 (11738089_at) / RFU CYB561 (11721691_x_at) / Fold change /veh CYB561 (11721691_x_at) / RFU ANKRD19P (11752326_a_at) / Fold change /veh ANKRD19P (11752326_a_at) / RFU OR2T12 /// OR2T33 /// OR2T8 (11738714_s_at) / Fold change /veh OR2T12 /// OR2T33 /// OR2T8 (11738714_s_at) / RFU VCAN (11748164_a_at) / Fold change /veh VCAN (11748164_a_at) / RFU JSRP1 (11732532_at) / Fold change /veh JSRP1 (11732532_at) / RFU KRTAP10-11 (11738290_x_at) / Fold change /veh KRTAP10-11 (11738290_x_at) / RFU MYO3A (11730013_a_at) / Fold change /veh MYO3A (11730013_a_at) / RFU EBF3 (11725865_a_at) / Fold change /veh EBF3 (11725865_a_at) / RFU CAMK2N1 (11719241_x_at) / Fold change /veh CAMK2N1 (11719241_x_at) / RFU C5orf56 (11738088_a_at) / Fold change /veh C5orf56 (11738088_a_at) / RFU OLFML3 (11715873_a_at) / Fold change /veh OLFML3 (11715873_a_at) / RFU LOC100653217 /// NTM (11731650_a_at) / Fold change /veh LOC100653217 /// NTM (11731650_a_at) / RFU MAPK11 (11762145_a_at) / Fold change /veh MAPK11 (11762145_a_at) / RFU FIZ1 (11724087_x_at) / Fold change /veh FIZ1 (11724087_x_at) / RFU OASL (11726364_x_at) / Fold change /veh OASL (11726364_x_at) / RFU SOX15 (11748057_x_at) / Fold change /veh SOX15 (11748057_x_at) / RFU CD79A (11719716_a_at) / Fold change /veh CD79A (11719716_a_at) / RFU HIST1H1D (11736915_at) / Fold change /veh HIST1H1D (11736915_at) / RFU CASKIN2 (11723855_a_at) / Fold change /veh CASKIN2 (11723855_a_at) / RFU LOC730098 (11760151_x_at) / Fold change /veh LOC730098 (11760151_x_at) / RFU OR4N2 (11742367_at) / Fold change /veh OR4N2 (11742367_at) / RFU PRRT2 (11749266_a_at) / Fold change /veh PRRT2 (11749266_a_at) / RFU SNX32 (11753110_a_at) / Fold change /veh SNX32 (11753110_a_at) / RFU CDHR5 (11726645_a_at) / Fold change /veh CDHR5 (11726645_a_at) / RFU RCAN1 (11760418_a_at) / Fold change /veh RCAN1 (11760418_a_at) / RFU FAM167A (11723789_a_at) / Fold change /veh FAM167A (11723789_a_at) / RFU FAM26E (11764081_at) / Fold change /veh FAM26E (11764081_at) / RFU ISYNA1 (11749810_s_at) / Fold change /veh ISYNA1 (11749810_s_at) / RFU ACY1 (11761880_at) / Fold change /veh ACY1 (11761880_at) / RFU 11764098_at / Fold change /veh 11764098_at / RFU SAMD14 (11745864_x_at) / Fold change /veh SAMD14 (11745864_x_at) / RFU NPB (11741838_a_at) / Fold change /veh NPB (11741838_a_at) / RFU TMPRSS6 (11731388_a_at) / Fold change /veh TMPRSS6 (11731388_a_at) / RFU KRTAP10-2 (11738614_at) / Fold change /veh KRTAP10-2 (11738614_at) / RFU ARHGAP8 /// PRR5-ARHGAP8 (11727945_x_at) / Fold change /veh ARHGAP8 /// PRR5-ARHGAP8 (11727945_x_at) / RFU KRTAP5-7 /// NADSYN1 (11734609_at) / Fold change /veh KRTAP5-7 /// NADSYN1 (11734609_at) / RFU RASL12 (11751679_a_at) / Fold change /veh RASL12 (11751679_a_at) / RFU CDKN2B (11736163_a_at) / Fold change /veh CDKN2B (11736163_a_at) / RFU PRF1 (11729649_at) / Fold change /veh PRF1 (11729649_at) / RFU, ZNF638 /// ZNF638-IT1 / Fold change vs veh, ZNF638 /// ZNF638-IT1 / RFU, PANK3 / Fold change vs veh, PANK3 / RFU, SH3YL1 / Fold change vs veh, SH3YL1 / RFU, ZEB2 / Fold change vs veh, ZEB2 / RFU, NRIP1 / Fold change vs veh, NRIP1 / RFU, PTTG1IP / Fold change vs veh, PTTG1IP / RFU, CAPN2 / Fold change vs veh, CAPN2 / RFU, MED14 / Fold change vs veh, MED14 / RFU, SNORA58 / Fold change vs veh, SNORA58 / RFU, C1orf63 / Fold change vs veh, C1orf63 / RFU, LRRFIP1 / Fold change vs veh, LRRFIP1 / RFU, NDUFAF7 / Fold change vs veh, NDUFAF7 / RFU, SLC12A2 / Fold change vs veh, SLC12A2 / RFU, IBTK / Fold change vs veh, IBTK / RFU, ESF1 / Fold change vs veh, ESF1 / Fold change vs veh, TMEM50B / RFU, TAOK1 / Fold change vs veh, TAOK1 / RFU, ACBD3 / Fold change vs veh, ACBD3 / RFU, TMA16 / Fold change vs veh, TMA16 / RFU, RWDD3 / Fold change vs veh, RWDD3 / RFU, BCAT1 / Fold change vs veh, BCAT1 / RFU, EDEM3 / Fold change vs veh, EDEM3 / RFU, TMEM33 / Fold change vs veh, TMEM33 / RFU, WDR75 / Fold change vs veh, WDR75 / RFU, AHCTF1 / Fold change vs veh, AHCTF1 / RFU, TFRC / Fold change vs veh, TFRC / RFU, ZDHHC17 / Fold change vs veh, ZDHHC17 / RFU, NOM1 / Fold change vs veh, NOM1 / RFU, ARL8B / Fold change vs veh, ARL8B / RFU, ZBTB11 / Fold change vs veh, ZBTB11 / RFU, TAMM41 / Fold change vs veh, TAMM41 / RFU, KIAA1704 /// LOC100996395 / Fold change vs veh, KIAA1704 /// LOC100996395 / RFU, ING1 / Fold change vs veh, ING1 / RFU, TRMT61B / Fold change vs veh, TRMT61B / RFU, FUBP3 / Fold change vs veh, FUBP3 / RFU, TP53 / Fold change vs veh, TP53 / RFU, TNKS2 / Fold change vs veh, TNKS2 / RFU, ZFP14 / Fold change vs veh, ZFP14 / RFU, ACTR2 / Fold change vs veh, ACTR2 / RFU, PPP3R1 / Fold change vs veh, PPP3R1 / RFU, PIK3R1 / Fold change vs veh, PIK3R1 / RFU, HNRNPA1 / Fold change vs veh, HNRNPA1 / RFU, RNF170 / Fold change vs veh, RNF170 / RFU, ZNF28 / Fold change vs veh, ZNF28 / RFU, RNGTT / Fold change vs veh, RNGTT / RFU, OGT / Fold change vs veh, OGT / RFU, BRD1 / Fold change vs veh, BRD1 / RFU, MARS / Fold change vs veh, MARS / RFU, ZNF655 / Fold change vs veh, ZNF655 / RFU, FAHD1 / Fold change vs veh, FAHD1 / RFU, BDP1 / Fold change vs veh, BDP1 / RFU, LRRCC1 / Fold change vs veh, LRRCC1 / RFU, ARID1A / Fold change vs veh, ARID1A / RFU, ZNF146 / Fold change vs veh, ZNF146 / RFU, ZNF330 / Fold change vs veh, ZNF330 / RFU, GPN3 / Fold change vs veh, GPN3 / RFU, C9orf123 / Fold change vs veh, C9orf123 / RFU, N4BP2L2 / Fold change vs veh, N4BP2L2 / RFU, ARFIP1 / Fold change vs veh, ARFIP1 / RFU, FAM179B / Fold change vs veh, FAM179B / RFU, BCL10 / Fold change vs veh, BCL10 / RFU, UHRF1BP1L / Fold change vs veh, UHRF1BP1L / RFU, BET1 / Fold change vs veh, BET1 / RFU, CNOT2 / Fold change vs veh, CNOT2 / RFU, ZNF268 / Fold change vs veh, ZNF268 / Fold change vs veh, ZNF507 / RFU, DGCR2 / Fold change vs veh, DGCR2 / RFU, WDSUB1 / Fold change vs veh, WDSUB1 / Fold change vs veh, HSP90B1 /// MIR3652 / RFU, ADSS / Fold change vs veh, ADSS / RFU, GK / Fold change vs veh, GK / RFU, ZNF148 / Fold change vs veh, ZNF148 / RFU, TAF9 / Fold change vs veh, TAF9 / RFU, SLC1A5 / Fold change vs veh, SLC1A5 / RFU, SLMO2 / Fold change vs veh, SLMO2 / RFU, ABCC4 / Fold change vs veh, ABCC4 / RFU, LOC101060439 /// RAP1B / Fold change vs veh, LOC101060439 /// RAP1B / RFU, RFX7 / Fold change vs veh, RFX7 / RFU, GTPBP10 / Fold change vs veh, GTPBP10 / RFU, CNEP1R1 / Fold change vs veh, CNEP1R1 / RFU, BIVM-ERCC5 /// ERCC5 / Fold change vs veh, BIVM-ERCC5 /// ERCC5 / RFU, ILF3 / Fold change vs veh, ILF3 / RFU 11762660_at / Fold change /veh 11762660_at / RFU VCAN (11757783_s_at) / Fold change /veh VCAN (11757783_s_at) / RFU DDX43 (11728927_at) / Fold change /veh DDX43 (11728927_at) / RFU KRT8 (11758188_x_at) / Fold change /veh KRT8 (11758188_x_at) / RFU NKD1 (11759106_at) / Fold change /veh NKD1 (11759106_at) / RFU SRD5A1 (11742802_a_at) / Fold change /veh SRD5A1 (11742802_a_at) / RFU TPSAB1 /// TPSB2 (11721975_s_at) / Fold change /veh TPSAB1 /// TPSB2 (11721975_s_at) / RFU GSTM3 (11746129_a_at) / Fold change /veh GSTM3 (11746129_a_at) / RFU IL23R (11737362_x_at) / Fold change /veh IL23R (11737362_x_at) / RFU TMEM51 (11727254_a_at) / Fold change /veh TMEM51 (11727254_a_at) / RFU PIWIL2 (11732686_x_at) / Fold change /veh PIWIL2 (11732686_x_at) / RFU ORM1 (11744905_x_at) / Fold change /veh ORM1 (11744905_x_at) / RFU CCDC152 (11743942_at) / Fold change /veh CCDC152 (11743942_at) / RFU ECM1 (11717891_a_at) / Fold change /veh ECM1 (11717891_a_at) / RFU IL23R (11748794_a_at) / Fold change /veh IL23R (11748794_a_at) / RFU TNFAIP8L3 (11732012_x_at) / Fold change /veh TNFAIP8L3 (11732012_x_at) / RFU MBOAT4 (11741988_at) / Fold change /veh MBOAT4 (11741988_at) / RFU 11764193_at / Fold change /veh 11764193_at / RFU TMEM53 (11763286_at) / Fold change /veh TMEM53 (11763286_at) / RFU MAGEB2 (11727129_at) / Fold change /veh MAGEB2 (11727129_at) / RFU TMEM200A (11744735_a_at) / Fold change /veh TMEM200A (11744735_a_at) / RFU CCDC152 (11751479_a_at) / Fold change /veh CCDC152 (11751479_a_at) / RFU FAM211A (11726209_a_at) / Fold change /veh FAM211A (11726209_a_at) / RFU RGS16 (11746705_a_at) / Fold change /veh RGS16 (11746705_a_at) / RFU VCAN (11755009_s_at) / Fold change /veh VCAN (11755009_s_at) / RFU RHOB (11743442_s_at) / Fold change /veh RHOB (11743442_s_at) / RFU RGS16 (11720943_a_at) / Fold change /veh RGS16 (11720943_a_at) / RFU RGS16 (11720944_at) / Fold change /veh RGS16 (11720944_at) / RFU, VPS4B / Fold change vs veh, VPS4B / RFU, CREB1 / Fold change vs veh, CREB1 / RFU, DNAJC13 / Fold change vs veh, DNAJC13 / RFU, GNAQ / Fold change vs veh, GNAQ / RFU, CDK5R1 / Fold change vs veh, CDK5R1 / RFU, ZRANB3 / Fold change vs veh, ZRANB3 / RFU, CUL4A / Fold change vs veh, CUL4A / RFU, CCNY / Fold change vs veh, CCNY / RFU, UFL1 / Fold change vs veh, UFL1 / RFU, COG3 / Fold change vs veh, COG3 / RFU, DIAPH2 / Fold change vs veh, DIAPH2 / RFU, SKA2 / Fold change vs veh, SKA2 / RFU, AFF3 / Fold change vs veh, AFF3 / RFU, LMF1 / Fold change vs veh, LMF1 / RFU, IPO11 / Fold change vs veh, IPO11 / RFU, DFFB / Fold change vs veh, DFFB / RFU, FOXP1 / Fold change vs veh, FOXP1 / RFU, CARD8 / Fold change vs veh, CARD8 / RFU, STRN3 / Fold change vs veh, STRN3 / RFU, ADK / Fold change vs veh, ADK / RFU, RASSF2 / Fold change vs veh, RASSF2 / RFU, WIPF1 / Fold change vs veh, WIPF1 / RFU, LARP1B / Fold change vs veh, LARP1B / RFU, RASA1 / Fold change vs veh, RASA1 / RFU, RB1 / Fold change vs veh, RB1 / RFU, PPFIA1 / Fold change vs veh, PPFIA1 / RFU, MAT2A / Fold change vs veh, MAT2A / RFU, CCT5 / Fold change vs veh, CCT5 / RFU, WDR92 / Fold change vs veh, WDR92 / RFU, CUX1 / Fold change vs veh, CUX1 / RFU, TTC7A / Fold change vs veh, TTC7A / RFU, TMEM135 / Fold change vs veh, TMEM135 / RFU, DEPTOR / Fold change vs veh, DEPTOR / RFU, CPM / Fold change vs veh, CPM / RFU, DNAJB6 / Fold change vs veh, DNAJB6 / RFU, CACNA2D3 / Fold change vs veh, CACNA2D3 / RFU, DTX4 / Fold change vs veh, DTX4 / RFU, TFCP2 / Fold change vs veh, TFCP2 / RFU, GMCL1 /// GMCL1P1 / Fold change vs veh, GMCL1 /// GMCL1P1 / RFU, AEBP2 / Fold change vs veh, AEBP2 / RFU, SNHG1 /// SNORD22 /// SNORD25 /// SNORD26 /// SNORD27 /// SNORD28 /// SNORD29 /// SNORD31 / Fold change vs veh, SNHG1 /// SNORD22 /// SNORD25 /// SNORD26 /// SNORD27 /// SNORD28 /// SNORD29 /// SNORD31 / Fold change (Aza/veh), C12orf56 (ProbeSet 11735607_a_at) / Fold change (ACY-1035/veh), C12orf56 (ProbeSet 11735607_a_at) / Fold change (Aza/veh), FGFR1OP (ProbeSet 11751329_s_at) / Fold change (ACY-1035/veh), FGFR1OP (ProbeSet 11751329_s_at) / Fold change (Aza/veh), VPS36 (ProbeSet 11739960_a_at) / Fold change (ACY-1035/veh), VPS36 (ProbeSet 11739960_a_at) / RFU SYPL1 (11715823_x_at) / Fold change /veh SYPL1 (11715823_x_at) / RFU IGFBP7 (11715501_s_at) / Fold change /veh IGFBP7 (11715501_s_at) / RFU REEP3 (11722064_at) / Fold change /veh REEP3 (11722064_at) / RFU IGLL1 (11728026_x_at) / Fold change /veh IGLL1 (11728026_x_at): dose or concentration left out as unconfirmed
# Conditions: MV-4-11 cells, 48 hours
smiles,measurement,value
Nc1ccc(-c2cccs2)cc1NC(=O)c1ccc2c(c1)cc(C1CC1)n2CCN1CCOCC1 [ACY-1035],RFU C10orf10 (11716522_x_at),43.57 RFU

# From PMC5218480 (PLoS ONE, 2017)
